Measured values published in US20200270309A1, “MALEIMIDE GROUP-MODIFIED ANGIOGENESIS INHIBITOR HM-1 AND USE THEREOF” (NANJING ANJI BIOLOGICAL TECHNOLOGY CO., LTD, priority 2017, published 2020).
Marks after values point to notes of the source that are not given here. Peptide text beside a SMILES is read from it. * marks the point of attachment. X64 = O=C1C=CC(=O)N1c1cccc(CCCCCCCCCC(=O)*)c1; X54 = O=C1C=CC(=O)N1c1cccc(CCCCCCC(=O)*)c1

What was measured:
[1] = system: xylene-induced ear swelling; assay: Xylene-induced mouse ear swelling; format: in vivo; details: Kunming mice, injected once a day for 5 days; for Swelling degree / Swelling degree (mg): right minus left ear piece weight 2 h after xylene; for Inhibition rate (%): xylene-induced ear swelling
Summary of the method: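 Kunming mice dosed by injection once daily for 5 days; 1 h after last dose, 0.05 mL xylene applied to right ear, left ear untreated. Mice killed 2 h later; punched ear pieces weighed. Swelling degree = right minus left ear weight; swelling rate = swelling degree/left ear weight ×100%.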

[2] = system: carrageenan-induced toe swelling; assay: Carrageenan-induced toe swelling in rats; format: in vivo; details: SD rats; for Swelling degree 1 h: 1 h after carrageenan; for Swelling degree 3 h: 3 h after carrageenan; for Swelling degree 5 h: 5 h after carrageenan; for Swelling degree 7 h: 7 h after carrageenan
Summary of the method: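 Rats dosed by injection once daily for 3 d, controls given equal-volume saline. Right hind paw volume measured by water displacement to a marked joint line; swelling degree (mL) is paw volume after carrageenan inflammation minus volume before.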

[3] = system: human retinal capillary endothelial cells (HRCECs); assay: MTT proliferation inhibition on HRCECs; format: cell-based; details: 48 h; for A570 nm-A630 nm: mean±SD
Summary of the method: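 HRCECs seeded at 3.0×10^4 cells/mL, adhered overnight, then exposed to polypeptide for 48 h at 37 °C, 5% CO2. MTT added 4 h, formazan dissolved in DMSO, absorbance 570/630 nm; PIR (%) = 1 − treated/negative control, mean±SD of three independent runs.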

[4] = system: choroidal neovascularization; assay: Choroidal neovascularization in rats (laser photocoagulation, FFA); format: in vivo; details: BN rats
Summary of the method: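 Male BN rats aged 6-8 weeks were given 8 krypton-laser spots around the optic disc (647.1 nm, 350 mW, 50 μm, 0.05 s). Once the model was confirmed, groups of 5 got daily intravitreal compound at 0.05 μM or saline for 1 week. FFA followed at 3, 7, 14 and 28 days after dosing.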

[5] = system: retinal neovascularization (OIR model); assay: Retinal vessels in OIR mice; format: in vivo, C57/B16 mice; details: for Area of neovascular plexus (mm^2): dose 0.05 μM in the vitreous chamber on day 13, retinal vessels evaluated on day 17; for Inhibition rate (%): dose 0.05 μM in the vitreous chamber on day 13, retinal vessels evaluated on day 17, vs negative control
Summary of the method: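 C57/B16 pups were held in 75% oxygen from postnatal day 7 to 12, then returned to room air. On day 13 they received intravitreal saline or compound. On day 17 perfused vessels were labelled by Texas red tomato agglutinin injected into the left ventricle (5 min circulation) and retinal vasculature assessed.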

[6] = day 3 after administration, total light spot number was 297, 0.05 μM in the vitreous chamber once a day for 1 week
[7] = day 7 after administration, total light spot number was 186, 0.05 μM in the vitreous chamber once a day for 1 week
[8] = day 14 after administration, total light spot number was 137, 0.05 μM in the vitreous chamber once a day for 1 week
[9] = day 28 after administration, total light spot number was 69, 0.05 μM in the vitreous chamber once a day for 1 week

| Structure (SMILES) | Swelling degree ([1]; dose 2 mg/kg) | Inhibition rate (%) ([1]; dose 2 mg/kg) | Inhibition rate (%) ([1]; dose 4 mg/kg) | Swelling degree (mg) ([1]; dose 8 mg/kg) | Inhibition rate (%) ([1]; dose 8 mg/kg) | Swelling degree 1 h ([2]; 2.0 mg/kg once a day for 3 d) | Swelling degree 3 h ([2]; 2.0 mg/kg once a day for 3 d) | Swelling degree 5 h ([2]; 2.0 mg/kg once a day for 3 d) | Swelling degree 7 h ([2]; 2.0 mg/kg once a day for 3 d) | Swelling degree 1 h ([2]; 4.0 mg/kg once a day for 3 d) | Swelling degree 3 h ([2]; 4.0 mg/kg once a day for 3 d) | Swelling degree 5 h ([2]; 4.0 mg/kg once a day for 3 d) | Swelling degree 7 h ([2]; 4.0 mg/kg once a day for 3 d) | Inhibition rate (%) ([3]; dose 0.05 μM) | A570 nm-A630 nm ([3]; dose 0.05 μM) | Inhibition rate (%) ([3]; dose 0.1 μM) | A570 nm-A630 nm ([3]; dose 0.1 μM) | Inhibition rate (%) ([3]; dose 0.2 μM) | A570 nm-A630 nm ([3]; dose 0.2 μM) | CNV Incidence (%) [4, 6] | further results |
| --- | --- | --- | --- | --- | --- | --- | --- | --- | --- | --- | --- | --- | --- | --- | --- | --- | --- | --- | --- | --- | --- |
| C[C@H](NC(=O)CNC(=O)[C@H](CCCNC(=N)N)NC(=O)CCCCCCc1cccc(N2C(=O)C=CC2=O)c1)C(=O)N[C@@H](CC(=O)O)C(=O)N[C@@H](CCCNC(=N)N)C(=O)N[C@@H](C)C(=O)NCC(=O)NCC(=O)NCC(=O)NCC(=O)N[C@@H](CCCNC(=N)N)C(=O)NCC(=O)N[C@@H](CC(=O)O)C(=O)O [X30] (X54-RGADRAGGGGRGD-OH) | 5.19 ± 0.57 mg | 16.69% | 18.62% | 3.77 ± 0.38** mg | 39.49% | 0.26 ± 0.15 mg | 0.36 ± 0.18 mg | 0.40 ± 0.16 mg | 0.35 ± 0.11 mg | 0.25 ± 0.19 mg | 0.33 ± 0.13 mg | 0.39 ± 0.18 mg | 0.34 ± 0.15 mg | 42.46%* | 0.7605 ± 0.00513 | 60.14%** | 0.5268 ± 0.06831 | 65.82%* | 0.4517 ± 0.03378 | 51.85% | Swelling degree ([1]; dose 4 mg/kg): 5.07 ± 0.49 mg; Leakage Light spot number [4, 6]: 154; CNV Incidence (%) [4, 7]: 48.92%; Leakage Light spot number [4, 7]: 91; CNV Incidence (%) [4, 8]: 45.99%; Leakage Light spot number [4, 8]: 63; CNV Incidence (%) [4, 9]: 40.58%; Leakage Light spot number [4, 9]: 28; Area of neovascular plexus (mm^2) [5]: 0.118 ± 0.012 mm^2; Inhibition rate (%) [5]: 44.34%* |
| C[C@H](NC(=O)CNC(=O)[C@H](CCCNC(=N)N)NC(=O)CCCCCCCCCc1cccc(N2C(=O)C=CC2=O)c1)C(=O)N[C@@H](CC(=O)O)C(=O)N[C@@H](CCCNC(=N)N)C(=O)N[C@@H](C)C(=O)NCC(=O)NCC(=O)NCC(=O)NCC(=O)N[C@@H](CCCNC(=N)N)C(=O)NCC(=O)N[C@@H](CC(=O)O)C(=O)O [X33] (X64-RGADRAGGGGRGD-OH) | 3.22 ± 0.59 mg | 17.34% | 29.21% | 4.41 ± 0.9** mg | 48.31% | 0.22 ± 0.13 mg | 0.37 ± 0.11 mg | 0.42 ± 0.17 mg | 0.35 ± 0.13 mg | 0.25 ± 0.14 mg | 0.31 ± 0.13 mg | 0.44 ± 0.19 mg | 0.33 ± 0.18 mg | 42.66%* | 0.7579 ± 0.03744 | 46.86%** | 0.7024 ± 0.04477 | 62.24%* | 0.4991 ± 0.04854 | 54.21% | Swelling degree (mg) ([1]; dose 4 mg/kg): 5.15 ± 0.19* mg; Leakage Light spot number [4, 6]: 161; CNV Incidence (%) [4, 7]: 46.24%; Leakage Light spot number [4, 7]: 86; CNV Incidence (%) [4, 8]: 45.26%; Leakage Light spot number [4, 8]: 62; CNV Incidence (%) [4, 9]: 37.68%; Leakage Light spot number [4, 9]: 26; Area of neovascular plexus (mm^2) [5]: 0.089 ± 0.029 mm^2; Inhibition rate (%) [5]: 58.02%** |
